Source: PMC6287197, “Eukaryotic Cell Toxicity and HSA Binding of [Ru(Me4phen)(bb7)]^2+ and the Effect of Encapsulation in Cucurbit[10]uril” (Frontiers in Chemistry, 2018)
Read-outs that look alike come from different tables or passages of the source.

Assays:
[1] = tested on: BHK (baby hamster kidney) cell line; experiment: MTT toxicity assay against BHK cells; format: cell-based
Experimental: (§1) BHK (baby hamster kidney); Caco-2 (heterogeneous human epithelial colorectal adenocarcinoma); and Hep-G2 (liver carcinoma). All cell lines were cultured in 75 mL culture flasks in DMEM culture media (Dulbecco's Modified Eagle's Medium, Gibco, Thermo Fisher, UK) supplemented with 10% fetal bovine serum (Gibco, Thermo Fisher, UK), 1% MEM Non-Essential Amino Acid (Sigma, UK) and 1% penicillin-streptomycin (Sigma) at 37°C in an atmosphere of 5% humidified CO2. Cells used in the study were in the logarithmic growth phase, and unless stated were grown to 70% confluence, and then trypsinized with 0.5% trypsin-EDTA (Gibco, Canada) for detachment and use in the assays. […] The cells were cultured in 96-well microtiter plates containing the respective media to a cell density of 3,000 per well at 37°C in an atmosphere of air containing 5% CO2. Cell viability was assessed after continuous exposure to various concentrations of drugs (ranging from 0.5 to 400 μM) for 24 and 48 h. Cisplatin served as a treatment evaluation standard. […] The amount of MTT reduced to formazan within the cells was quantified by measuring the absorbance at λ = 570 nm using a Fluostar Galaxy Microplate Reader. The average values presented are based on at least three independent experiments. The IC50 values were determined using GraphPad Prism 7.0 (GraphPad Software, San Diego, USA).

[2] = tested on: Hep-G2 (human hepatocellular carcinoma) cell line; experiment: MTT toxicity assay against Hep-G2 cells; format: cell-based
Experimental: as §1

[3] = tested on: Caco-2 (human epithelial colorectal adenocarcinoma) cell line; experiment: MTT toxicity assay against Caco-2 cells; format: cell-based
Experimental: as §1, with “h.” for “h. Cisplatin served as a treatment evaluation standard.”

[4] = target: T1, human serum albumin (HSA) (Homo sapiens, UniProt P02768); experiment: HSA binding by tryptophan fluorescence quenching; conditions: for Kapp (apparent HSA binding constant) / binding number n for HSA binding: [Ru complex]/[HSA] ratio 0 to 2.4, 0.1 M sodium phosphate pH 7.4
T1 construct: purchased Sigma-Aldrich
Experimental: All solutions used in the protein binding studies were dissolved in a 0.1 M sodium phosphate buffer (pH = 7.4). Protein solutions (5 μM) were titrated with the ruthenium complexes from 2 mM stock solutions, from a metal complex/protein ratio of 0.0 to 8.0. […] All experiments were carried out in triplicate, with results presented as mean and standard deviation.
The static quenching via binding of the ruthenium complexes to HSA can be represented as: nRu+HSA→nRu⋯ HSA where nRu…HSA denotes the quenched ruthenium complex/HSA species. A double-logarithm equation of log10[(F0-F)/F] vs. log10[Ru] can then be used to express the equilibrium between the free and bound ruthenium(II) complex to determine the apparent binding constant (Kapp) and the binding number (n) (Krause-Heuer et al., [2012]). log [F0-F/F]=log10Kapp+nlog10[Ru]
It was not possible to determine a single apparent HSA binding constant, as a linear relationship was not observed over the entire concentration range of added ruthenium complex in the plot of log10[(F0 – F)/F] vs. log10[Ru]. However, two distinct linear sections could be found in the analysis of the double logarithm, corresponding to ruthenium complex to HSA ratios of (a) 0 to 2.4 and (b) 2.4 to 8. As previously observed (Li et al., [2013b]), the two binding ratio regions represent an initial 1:1 binding at low ruthenium complex concentration (ratios 0–2.4), and then upon addition of further ruthenium complex, a region (2.4–8) where multiple ruthenium complexes (≥ 2:1) are bound to HSA. The higher affinity 1:1 HSA binding constant Kapp and the binding numbers n for the ruthenium complexes determined at low ratios of added ruthenium complex are summarized in Table 2.

[5] = target: T1, human serum albumin (HSA); design: method as in Li et al., 2013b; conditions: ref Li et al., 2013b; cited from earlier work
[6] = design: method as in Li et al., 2017; conditions: mice, ref Li et al., 2017; cited from earlier work
BHK cells = experiment: Confocal microscopy of cellular accumulation in BHK cells; format: cell-based, hamster
Experimental: The trypsinized BHK cells were seeded on sterile, poly L-lysine coated, coverslips in a 24-well plate. The ruthenium complex was applied to the cells in growth media to make the desired concentration (25 μM) and incubated at 37°C with 5% CO2 for 1 h. Following the incubation, 100 nM Mitotracker® Green FM (Invitrogen) was added for mitochondrial staining. Staining was carried out in DMEM medium under standard cultivation conditions as per the manufacturer's instructions. Following staining, the coverslips were gently rinsed with phosphate buffer solution (PBS, pH = 7.1) prior to confocal laser scanning microscopy.
The cellular accumulation of the ruthenium complex was determined using a laser scanning confocal microscope (FV3000, Olympus). Samples were viewed under 60× silicone immersion using the following excitation (λex) and emission (λem) wavelengths. Ruthenium complex (λex = 450 nm, λem = 630 nm) and Mitotracker Green FM (λex = 490 nm, λem = 516 nm) were excited using a blue argon laser (λex = 488 nm), and emissions were collected at λ = 600–650 nm for the ruthenium complex and λ = 500–550 nm for Mitotracker Green. […] The luminescence intensity of cis-α-[Ru(Me4phen)(bb7)]^2+ inside the BHK cells was quantified using the surface rendering function of Imaris 9.2.1 software, and the data analyzed for statistical difference using the Wilcoxon-test and t-test methods.

[7] = tested on: eukaryotic cells (BHK, Hep-G2, Caco-2); experiment: Toxicity to the panel of eukaryotic cell lines (comparisons); format: cell-based
Experimental: as §1

[8] = design: method as in Sun et al., 2018; conditions: ref Sun et al., 2018; cited from earlier work
[9] = tested on: Gram-positive and Gram-negative bacteria; conditions: 2018, cited from earlier work; for MIC: Gram-positive and Gram-negative bacteria, ref Gorle et al., 2015, Sun et al.
[10] = 24-h incubation, read-out: IC50 BHK 24 h
[11] = 48-h incubation, read-out: IC50 BHK 48 h
[12] = 24-h incubation, read-out: IC50 Hep-G2 24 h
[13] = 48-h incubation, read-out: IC50 Hep-G2 48 h
[14] = 24-h incubation, read-out: IC50 Caco-2 24 h
[15] = 48-h incubation, read-out: IC50 Caco-2 48 h

T1 sequence (P02768 25-609): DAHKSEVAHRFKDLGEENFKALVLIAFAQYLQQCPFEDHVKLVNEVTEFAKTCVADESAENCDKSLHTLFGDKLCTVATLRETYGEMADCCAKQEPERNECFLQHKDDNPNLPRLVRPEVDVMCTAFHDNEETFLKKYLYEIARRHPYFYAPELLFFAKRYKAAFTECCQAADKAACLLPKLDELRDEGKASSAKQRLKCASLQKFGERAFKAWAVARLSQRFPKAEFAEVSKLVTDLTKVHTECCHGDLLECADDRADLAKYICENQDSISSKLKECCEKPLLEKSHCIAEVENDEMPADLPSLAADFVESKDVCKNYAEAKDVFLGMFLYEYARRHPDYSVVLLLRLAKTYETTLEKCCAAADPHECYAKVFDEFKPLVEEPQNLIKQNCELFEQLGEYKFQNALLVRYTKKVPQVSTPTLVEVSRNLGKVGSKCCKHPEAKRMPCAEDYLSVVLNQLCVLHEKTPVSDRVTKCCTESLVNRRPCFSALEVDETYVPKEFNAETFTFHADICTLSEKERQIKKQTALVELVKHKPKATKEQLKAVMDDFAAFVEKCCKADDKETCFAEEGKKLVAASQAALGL

Row | Molecule | IC50 [1, 10] [µM] | IC50 [1, 11] [µM] | IC50 [2, 12] [µM] | IC50 [2, 13] [µM] | IC50 [3, 14] [µM] | IC50 [3, 15] [µM] | Kapp (apparent HSA binding constant) [4] | binding number n for HSA binding [4] | log P [8] | further results
1 | Cc1cnc2c(ccc3c(C)c(C)cnc32)c1C.Cc1cnc2c(ccc3c(C)c(C)cnc32)c1C.Cc1cnc2c(ccc3c(C)c(C)cnc32)c1C.[Ru+2] [(Me4phen)3, [Ru(Me4phen)3]^2+, reference compound] | 157 ± 25 | 111 ± 23 | 253 ± 60 | 72 ± 31 | 220 ± 43 | 265 ± 13 | 0.12 ± 0.03 × 10^5 (M)^−1 | 0.81 | – | –
2 | N.N.[Cl][Pt][Cl] [Cisplatin, reference compound] | > 400 | 146 ± 8 | 314 ± 8 | 12 ± 3 | – | – | – | – | – | –
3 | Cc1ccnc(-c2cc(CCCCCCCCCCCCc3ccnc(-c4cc(C)ccn4)c3)ccn2)c1.[Ru+2].[Ru+2].c1cnc2c(c1)ccc1cccnc12.c1cnc2c(c1)ccc1cccnc12.c1cnc2c(c1)ccc1cccnc12.c1cnc2c(c1)ccc1cccnc12 [Rubb12, [{Ru(phen)2}2{μ-bb12}]^4+, reference compound] | 44 ± 9 | 41 ± 7 | 55 ± 12 | 15 ± 5 | 10 ± 1 | 8 ± 3 | – | – | – | Kapp (HSA binding), previously determined [5]: 470000 M⁻¹; effect of Q[10]-binding on HSA binding affinity [5]: decreased the affinity; amount of complex in serum after intravenous injection [6]: decreased very rapidly
4 | Cc1ccnc(-c2cc(CCCCCCCc3ccnc(-c4cc(C)ccn4)c3)ccn2)c1.Cc1cnc2c(ccc3c(C)c(C)cnc32)c1C.[Ru+2] [α-Me4phen-7, cis-α-[Ru(Me4phen)(bb7)]^2+] | > 400 | 168 ± 5 | 162 ± 14 | 142 ± 8 | > 400 | > 400 | 4.6 ± 0.90 × 10^5 (M)^−1 | 1.14 | −1.33 | fold higher HSA binding affinity on Q[10]-encapsulation ([4]; Q[10]-encapsulated vs free): 3–4 fold; fold tighter HSA binding than α-phen-12 and α-Me2phen-7 ([4]; from Kapp): approximately 10 fold; level of cellular accumulation, free vs Q[10]-encapsulated (luminescence intensity per cell) (BHK cells; BHK cells, […] μM, 1-h incubation): no difference; nuclear localization in BHK cells (BHK cells; preliminary confocal microscopy): did not localize in the nucleus; fold decrease in toxicity by Q[10]-encapsulation ([7]; based on 48-h incubation toxicity to BHK and Hep-G2 cells): 2–3 fold; fold less toxic to eukaryotic cells than α-phen-12 ([7]; from IC50 values): 2–5 fold; MIC [9]: 1 to 10 µM; fold lower antimicrobial activity to Gram-negative bacteria than Rubb12 ([9]; ref Sun et al.): ≈ 2 fold
5 | Cc1ccnc(-c2cc(CCCCCCCc3ccnc(-c4cc(C)ccn4)c3)ccn2)c1.O=[N+]([O-])c1cc2cccnc2c2ncccc12.[Ru+2] [α-NO2phen-7, cis-α-[Ru(NO2phen)(bb7)]^2+] | > 400 | > 400 | 141 ± 29 | 99 ± 29 | 121 ± 18 | 126 ± 6 | 23.5 ± 4.9 × 10^5 (M)^−1 | 1.27 | −1.58 | –
6 | Cc1ccnc(-c2cc(CCCCCCCc3ccnc(-c4cc(C)ccn4)c3)ccn2)c1.[Ru+2].c1cnc2c(c1)ccc1cccnc12 [α-phen-7, cis-α-[Ru(phen)(bb7)]^2+] | > 400 | 250 ± 42 | 319 ± 26 | 312 ± 15 | > 400 | 219 ± 43 | 0.10 ± 0.00 × 10^5 (M)^−1 | 0.80 | – | –
7 | Cc1ccnc(-c2cc(CCCCCCCCCCCCc3ccnc(-c4cc(C)ccn4)c3)ccn2)c1.[Ru+2].c1cnc2c(c1)ccc1cccnc12 [α-phen-12, cis-α-[Ru(phen)(bb12)]^2+] | 92 ± 26 | 85 ± 16 | 94 ± 13 | 19 ± 3 | 227 ± 22 | 177 ± 17 | 0.43 ± 0.17 × 10^5 (M)^−1 | 0.95 | −0.9 | fold more toxic than α-Me4phen-7 ([7]; eukaryotic cells, from IC50 values): 2–5 fold; MIC [9]: 1 to 10 µM
8 | cis-α-[Ru(Me2phen)(bb7)]^2+ [α-Me2phen-7] | > 400 | 250 ± 46 | 358 ± 18 | 151 ± 30 | > 400 | > 400 | 0.29 ± 0.13 × 10^5 (M)^−1 | 0.91 | – | –
